Patent US20210371817A1, “COMPOSITIONS AND METHODS FOR PRECISE PATTERNING OF POSTERIOR NEUROECTODERM FROM HUMAN PLURIPOTENT STEM CELLS” (WISCONSIN ALUMNI RESEARCH FOUNDATION, priority 2013, published 2021)

Columns and labels:
Assay type in all cases: cell-based, human
[1] = test system: neuromesodermal progenitors; assay: Neuroectoderm or mesoderm fate transition of neuromesodermal progenitors by flow cytometry
Description: (§1) Assessment of neuroectoderm or mesoderm fate transition by flow cytometry. Grey histogram, IgG control; red histogram, antigen of interest. Data are presented as mean±standard deviation calculated from two biological replicates. (FIG. 8B) For experiments in panels FIGS. 8C-8F, neuromesodermal propagation was halted by removing FGF8b/CHIR 99021/GDF11 and adding RA. Assays were conducted after 4 days of RA treatment. (FIG. 8C) HOX profiles generated after RA treatment. Each gene is normalized to its maximum expression. Error bars are standard deviation calculated from duplicate reactions. (FIG. 8D) HoxB4 and HoxD10 expression in neuroepithelial cultures after RA treatment. Scale bars, 100 m. (FIG. 8E) Purity of Sox2, Pax6, HoxB4, and HoxD10 after 4 days of RA treatment. Sox2, Pax6, and HoxB4 were quantified using flow cytometry and HoxD10 was quantified by manual counting of dissociated cells ([…]). Error bars are standard deviation calculated from at least two biological replicates. […] (FIG. 8F) Motor neuron differentiation at cervical, thoracic, and lumbar spinal cord depths, where the motor neuron precursors show region-specific patterns of FoxP1, Isl1, and Hb9 co-expression. (FIG. 8G) Neuronal maturation from cervical, thoracic, and lumbar patterned NSCs, as assessed by immunocytochemistry (top panel; DAPI (blue) is overlaid in all images; Scale bars, 20 m) and RT-PCR (50 cycles; bottom panel).
(§2) Flow cytometry. Flow cytometry was conducted as described in the Examples above. Primary antibodies against Sox2 (mouse; 1:1000; Millipore), brachyury (goat; 1:200; R&D Systems), Pax6 (mouse; 1:200; DSHB), and HoxB4 (rat; 1:50; DSHB) were utilized. Samples were run on a FACSCaliber (BD Biosciences) and data were analyzed using Cyflogic software. Positive events were quantified by gating above the top 1% of species-matched IgG controls.
We next evaluated the transition of neuromesodermal progenitors to definitive neural progenitors. RA secreted from somites in response to declining FGF signaling elicits dorsal/ventral patterning and expression of the neuroectoderm marker Pax6 in vivo^16, 26, which led us to suspect RA serves as both the neuroectoderm fate switch and HOX ‘stop signal’. We first investigated the ability of RA to initiate neuroectoderm specification from neuromesodermal progenitors. […] At any point in neuromesodermal differentiation, the addition of RA generated highly pure (>83%) Pax6^+ neuroectoderm (FIGS. 8B-8E and FIGS. 9A-9C).

NSC cultures = assay: Hox protein expression in NSC cultures after RA treatment (immunocytochemistry, flow cytometry)
Description: as §1
FIGS. 9A-9C (FIG. 9A) provides additional data showing that RA induces a neuroectodermal fate and halts colinear HOX activation, using the neural differentiation scheme shown in FIG. 8B and representative hindbrain cultures assessed by qPCR. (FIG. 9B) Representative hindbrain cultures assessed by immunocytochemistry. (FIG. 9C) Representative hindbrain cultures assessed by flow cytometry. All data are presented as mean±S.D. and qPCR data are normalized to the time point of maximum expression for each gene. For the hindbrain cultures, HoxB1 and HoxB4 were quantified by immunocytochemistry relative to DAPI+ nuclei, while Sox2 and Pax6 were quantified by flow cytometry. Scale bars, 100 m.
as §2
Immunocytochemistry. Immunocytochemistry was conducted as previously described. […]

H9 ishcat2 line = assay: qPCR gene expression in H9 ishcat2 line (doxycycline-inducible β-catenin shRNA)
Description: Cell lines were passaged for differentiation on day −1 for all experiments (see Example 4 for details). (FIG. 4A) Timeline of H9 hESC differentiation corresponding to panels (FIG. 4B) and (FIG. 4C). RA, 1 μM; CHIR 99021, 3 μM; FGF8b, 100 ng/ml. (FIG. 4B) Gene expression analysis by RT-PCR. Control sample is E6 medium alone. (FIG. 4C) qPCR analysis at day 5 of differentiation normalized to the morphogen treatment that yielded maximum expression. Statistical significance was calculated using the Student's unpaired t-test relative to the sample with maximum expression (*, p<0.005; **, p<0.001). (FIG. 4D) qPCR analysis of gene expression at day 2 using the H9 ishcat2 line in the presence or absence of doxycycline (2 μg/ml) added 3 days prior to morphogen treatment. Data are normalized to doxycycline-free samples for each respective morphogen and statistical significance was calculated using the Student's unpaired t-test (*, p<0.01). (FIG. 4E) qPCR analysis of gene expression at day 5 using the H9 ishcat2 line in the presence or absence of doxycycline. Statistical significance was calculated using the Student's unpaired t-test (*, p<0.005). […] [HX531]=1 μM. Timeline shown on left panel.
(§3) qPCR. Total RNA was extracted from cultured cells using TRIZOL® (Life Technologies) according to the manufacturer's instructions. After isolation, 2-5 μg of total RNA was immediately subjected to reverse transcription using the Thermoscript™ RT-PCR kit (Life Technologies) in a 20 μL reaction according to the manufacturer's instructions. Resultant cDNA was diluted to 200 μL and utilized for qPCR (25 μL reactions, 1 μL cDNA per reaction) on a BioRad CFX96 detection unit using TAQMAN® Gene Expression Master Mix (Life Technologies) and TAQMAN® primers (Life Technologies). For all experiments, ΔΔCt values for each gene were calculated relative to ribosomal protein S18 (RPS18) RNA levels and converted to fold difference assuming 100% primer efficiency, then normalized to maximum expression levels as indicated in each figure legend.
To confirm the effects of CHIR 99021 were due to activation of β-catenin, we utilized the H9 ishcat2 line which harbors a doxycycline-inducible β-catenin shRNA cassette^23. […] We extended doxycycline with FGF8b/CHIR 99021 for 4 days and observed a reduction in HOXC6 by 9-fold, HOXC8 by 7-fold, and HOXC9 by 8-fold, which implicates β-catenin in HOX progression to caudal paralogs (FIG. 4E).

[2] = test system: neurally differentiating hPSC cultures; assay: Alternative FGF isoforms in HOX patterning protocol (flow cytometry, RT-PCR); conditions: for Sox2 and T (Brachyury) expression: FGF with CHIR, flow cytometry; for Hox1-5 paralog activation: two days of FGF/CHIR treatment, RT-PCR
Description: (FIG. 6A) Timeline of differentiation. […] (FIG. 6H) Agarose gel analysis for HOXgene expression after two days of FGF/CHR treatment in the protocol outlined in (FIG. 6A).
Specifically, FGF8a, 8b, and 8f, FGF17, FGF18, and FGF2 were used to execute our HOX patterning protocol on concurrent neurally differentiating hPSC cultures. The ability of alternative FGFs to recapitulate the effects of FGF8b was assessed by their ability to maintain a Sox2^+/T^+ neuromesodermal state while also inducing a similar rate of sequential HOXgene expression. Post FGF/CHIR addition, flow cytometry assays for Sox2 and T were performed, and the rate of sequential HOXgene expression was assessed by RT-PCR for a select panel of HOXgenes on collected mRNA samples.

H9 hESCs = assay: HOX, OTX2 and T gene expression by RT-PCR/qPCR during hESC differentiation with morphogens; conditions: HX531 1 μM; RT-PCR
Description: hPSC differentiation. hPSCs were washed once with phosphate-buffered saline (PBS; Invitrogen), dissociated with ACCUTASE® (Invitrogen) for 3 min, and collected by centrifugation. hPSCs were then seeded onto VTN-NC-coated plates in E8 medium containing 10 μM ROCK inhibitor (Y27632; R&D Systems). Seeding density was 2×10^5 cells/cm^2. The following day, the cells were switched to E6 medium (same composition as E8 medium minus FGF2 and TGFβ 1). Morphogen treatments were then carried out according to the figures in the text. Cells were supplemented with FGF8b (100-200 ng/ml; Peprotech), CHIR99021 (3-6 μM; Tocris), and/or RA (3 μM; Sigma).
Reverse transcriptase polymerase chain reaction (RT-PCR). Total RNA was extracted from cells using TRIZOL® reagent (Invitrogen) according to the manufacturer's instructions. RNA was then subjected to reverse-transcription using a Thermoscript™ RT-PCR kit (Invitrogen) in a 20 μL mixture according to the manufacturer's instructions. The resulting cDNA was then amplified in a 25 μL mixture containing 10×PCR buffer, 0.2 mM dNTP, 1.5 mM MgCl2, 0.5 μM of each primer, and 1 U Taq DNA polymerase (Invitrogen). Amplified products were resolved on 2% agarose gels containing SYBR Safe (Invitrogen) and visualized with a VersaDoc (BioRad). Primer sequences can be found in Table 3. All amplifications were carried out for 35 cycles. HOXC5 and HOXC6 were amplified at 58° C., all others with an annealing temperature of 55° C.
Propagation and differentiation of neuromesodermal progenitors. H9 hESCs (passage 25-45), H9 ishcat2 hESCs (passage 33-43), and IMR90-4 iPSCs (passage 31-40) were maintained in E8 medium on MATRIGEL© (BD Biosciences) as previously described. To initiate differentiation, hPSCs were passaged with ACCUTASE© (Life Technologies) onto vitronectin (VTN-NC)-coated plates at a density of 1×10^5 cells/cm^2 as previously described. The following day, cells were changed to E6 medium. 24 h later, cells were changed to E6 medium containing 200 ng/ml FGF8b (Peprotech). 24 h later, cells were washed once with 2 ml PBS, treated with ACCUTASE® for 2 min, and removed from the surface by gentle pipetting. After collection by centrifugation, cells were gently resuspended in E6 medium containing 200 ng/ml FGF8b and CHIR99021 (CHIR, concentration varied depending on cell line; Tocris) and re-seeded on VTN-NC-coated plates at a density of 1.5×10^5 cells/cm^2. Medium was not changed until 48 h after passaging. This passaging process was repeated on day 3 of CHIR 99021 treatment (re-seed density of 1.2×10^5 cells/cm^2) if extended neuromesodermal propagation was required, and 50 ng/ml GDF11 (Peprotech) was added on day 4 of CHIR 99021 treatment to initiate lumbar patterning. Cells were changed to E6 medium containing 1 μM retinoic acid (RA; Sigma) to facilitate neural transition.
as §3, with “Resultant cDNA was diluted to 200 μL and utilized for qPCR (25 μL reactions, 1 μL cDNA per reaction) on a BioRad CFX96 detection unit using TAQMAN® Gene Expression Master Mix (Life Technologies) and TAQMAN® primers (Life Technologies).” left out, “legend. […]” for “legend.”

[3] = neuromesodermal progenitors exposed to E6 medium with the substance
[4] = doxycycline prior to CHIR 99021 treatment, day 2
[5] = doxycycline with FGF8b/CHIR 99021 for 4 days

CC1=C(/C=C/C(C)=C/C=C/C(C)=C/C(=O)O)C(C)(C)CCC1 [RA, retinoic acid]
Purity of Pax6+ neuroectoderm ([1]; RA added at any point in neuromesodermal differentiation): > 83% | Brachyury+ cells [1, 3]: 43±4% | Pax6+ cells [1, 3]: 97±3% | Sox2+ cells [1, 3]: 98±4% | HoxB4+ cells (NSC cultures; RA added 24 h later (within 24 h of HOXC9 induction)): 12±4% | HoxB4+ cells (NSC cultures; RA added between 24-48 h of neuromesodermal propagation): 84±10%

C[C@H]1c2cccc(O)c2C(=O)C2=C(O)[C@]3(O)C(=O)C(C(N)=O)=C(O)[C@@H](N(C)C)[C@@H]3[C@@H](O)[C@@H]21 [doxycycline]
CTNNB1 reduction (H9 ishcat2 line; RA-treated cells, day 2): 2 fold | CTNNB1 (β-catenin) expression reduction (H9 ishcat2 line; doxycycline 2 μg/ml prior to CHIR 99021 treatment, day 2): 2.5 fold | HOXA1 expression decrease (H9 ishcat2 line; [4]): 15 fold | HOXB1 expression decrease (H9 ishcat2 line; [4]): 47 fold | T reduction (H9 ishcat2 line; doxycycline with FGF8b/CHIR 99021, day 5): 30 fold | HOXC6 reduction (H9 ishcat2 line; [5]): 9 fold | HOXC8 reduction (H9 ishcat2 line; [5]): 7 fold | HOXC9 reduction (H9 ishcat2 line; [5]): 8 fold

FGF2: fibroblast growth factor isoform used instead of FGF8b
Sox2 and T (Brachyury) expression [2]: nearly uniform expression of Sox2 and T (Brachyury) | Hox1-5 paralog activation [2]: activated Hox1-5 paralogs

CN1c2ccc([N+](=O)[O-])cc2N=C(c2ccc(C(=O)O)cc2)c2cc3c(cc21)C(C)(C)CCC3(C)C [HX531]
Effect on ability of FGF8b/CHIR 99021 to activate cervical and thoracic HOX paralogs (H9 hESCs): did not prevent

B1: FGF18: fibroblast growth factor isoform used instead of FGF8b (protein, UniProt O76093 28-207, looked up)
Fibroblast growth factor 18: EENVDFRIHVENQTRARDDVSRKQLRLYQLYSRTSGKHIQVLGRRISARGEDGDKYAQLLVETDTFGSQVRIKGKETEFYLCMNRKGKLVGKPDGTSKECVFIEKVLENNYTALMSAKYSGWYVGFTKKGRPRKGPKTRENQQDVHFMKRYPKGQPELQKPFKYTTVTKRSRRIRPTHPA
Sox2 and T (Brachyury) expression [2]: nearly uniform expression of Sox2 and T (Brachyury) | Hox1-5 paralog activation [2]: activated Hox1-5 paralogs

B2: FGF17: fibroblast growth factor isoform used instead of FGF8b (protein, UniProt O60258 23-216, looked up)
Fibroblast growth factor 17: TQGENHPSPNFNQYVRDQGAMTDQLSRRQIREYQLYSRTSGKHVQVTGRRISATAEDGNKFAKLIVETDTFGSRVRIKGAESEKYICMNKRGKLIGKPSGKSKDCVFTEIVLENNYTAFQNARHEGWFMAFTRQGRPRQASRSRQNQREAHFIKRLYQGQLPFPNHAEKQKQFEFVGSAPTRRTKRTRRPQPLT
Sox2 and T (Brachyury) expression [2]: nearly uniform expression of Sox2 and T (Brachyury) | Hox1-5 paralog activation [2]: activated Hox1-5 paralogs
